Where “and” joins values, the source holds several entries; their conditions need not be identical. Equal entries are not always repeated. Structures can show the parent of a compound that is named as a salt.
How the values were obtained:
[1] = biological target: T1, rat VMAT2-His (Rattus norvegicus, UniProt Q01827); assay: Differential scanning fluorimetry (DSF) with CPM dye: change of melting temperature of purified VMAT2; assay type: binding; conditions: for ΔTm: Table 1, DSF screening, mean ± SD of triplicates; for ΔTm at 12 µM / ΔTm at 37 µM / ΔTm at 10 µM / ΔTm at 30 µM / ΔTm at 90 µM / ΔTm at 270 µM / ΔTm at 11 µM / ΔTm at 33 µM: Table S2 dose response, read-out: ΔTm; for ΔTm at 12 µM: compound 0,12 µM; for ΔTm at 37 µM: compound 0,37 µM; for ΔTm at 10 µM: compound 10 µM; for ΔTm at 30 µM: compound 30 µM; for ΔTm at 90 µM: compound 90 µM; for ΔTm at 270 µM: compound 270 µM; for ΔTm at 11 µM: compound 1,11 µM; for ΔTm at 33 µM: compound 3,33 µM
T1 construct: The ORF of rat VMAT2 was subcloned into a pFastBac vector; His; made in house; host or cells: Sf9 insect cells (baculovirus)
Outline: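 Rat VMAT2-His from Sf9 baculovirus cells, purified by IMAC and SEC in DDM/CHS micelles, was screened by CPM-dye DSF over a 25–95 °C ramp at 2 °C/min. Tm was taken from the second derivative of the melting curve. Hits were validated in triplicate at 200 μM, with ΔTm > 5× SD as the cutoff.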

[2] = biological target: T2, human VMAT2 (Homo sapiens, UniProt Q05940); assay: FFN206 uptake assay in transfected Hek293 cells; assay type: cell-based; conditions: Table S1, substrate uptake assays in transfected Hek293 cells
T2 construct: expressed in transfected cells; host or cells: Hek293 cells, transient

[3] = biological target: T3, human VMAT1 (Homo sapiens, UniProt P54219); assay: FFN206 uptake assay in transfected Hek293 cells; assay type: cell-based; conditions: Table S1, substrate uptake assays in transfected Hek293 cells
T3 construct: expressed in transfected cells; host or cells: Hek293 cells, transient
T3 sequence (P54219 1-525): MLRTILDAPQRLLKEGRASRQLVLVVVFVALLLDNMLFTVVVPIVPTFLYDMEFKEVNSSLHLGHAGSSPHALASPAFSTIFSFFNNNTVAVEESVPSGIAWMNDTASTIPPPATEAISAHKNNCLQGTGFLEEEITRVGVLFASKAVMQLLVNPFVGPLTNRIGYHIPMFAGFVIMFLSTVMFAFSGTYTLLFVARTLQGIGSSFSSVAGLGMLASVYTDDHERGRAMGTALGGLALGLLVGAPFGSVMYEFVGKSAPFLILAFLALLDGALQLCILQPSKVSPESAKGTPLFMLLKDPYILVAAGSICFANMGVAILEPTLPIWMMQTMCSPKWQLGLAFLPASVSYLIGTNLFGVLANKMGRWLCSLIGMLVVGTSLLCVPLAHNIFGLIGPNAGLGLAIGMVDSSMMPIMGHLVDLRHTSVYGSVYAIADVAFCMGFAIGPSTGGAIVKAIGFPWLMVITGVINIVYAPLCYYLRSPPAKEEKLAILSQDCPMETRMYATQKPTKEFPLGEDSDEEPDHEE

[4] = biological target: T4, VMAT2 (Rattus norvegicus, UniProt Q01827); conditions: hek293 cells, 50 µM
Method: (§1) We preincubated cells expressing VMAT2 with 50 μM compounds and measured [^3H]-DTBZ binding (5 nM) to the sample (Fig. 3a). […] Hek293 cells were grown and transfected with pcDNA3.1 VMAT2-His as described above. Two days after transfection, cells were harvested, washed and transferred to 96 well MultiScreen FB filter plates (Millipore). […] Cells were washed 3 times with ice cold PBS and 50 µl Ultima Gold LLL (PerkinElmer) was added to each well. […] After a 20 min incubation at 37 °C, cells were washed and [^3H] scintillation counting was performed as described above.

[5] = biological target: rat VMAT2 Q143A (Rattus norvegicus, UniProt Q01827, Q143A); assay: FFN206 uptake assay, VMAT2 mutant
Method: (§2) For activity assays, [^3H]-DTBZ and [^3H]-SMT binding and competition assays (see section below), several VMAT2 mutants were prepared. […] In addition, a selection of rVMAT2 mutants carrying mutations designed from binding modes identified by docking and MD-simulation was prepared in a pcDNA3.1 rVMAT2-Strep tag II plasmid.

[6] = biological target: rat VMAT2 P314A (Rattus norvegicus, UniProt Q01827, P314A); assay: FFN206 uptake assay, VMAT2 mutant
Method: as §2

[7] = biological target: rat VMAT2 Y434A (Rattus norvegicus, UniProt Q01827, Y434A); assay: FFN206 uptake assay, VMAT2 mutant
Method: as §2

[8] = biological target: rat VMAT2 (Rattus norvegicus, UniProt Q01827); assay: FFN206 uptake assay in transfected Hek293 cells; conditions: for VMAT2-specific FFN206 uptake relative to DMSO (=1), replicate samples: Fig. 2a source data, 25 μM compound
[9] = biological target: T4, VMAT2; assay: [3H]-DTBZ competition assay in Hek293 cells expressing VMAT2;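 on all read-outs here: HEK293 cells transfected with VMAT2, pretreated 30 min with compound, then given 5 nM [3H]-DTBZ for 20 min at 37 °C, bound label read by scintillation counting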; conditions: for effect on [3H]-DTBZ binding compared with DMSO control (one-way ANOVA, p < 0.001): 50 μM compound; for [3H]-DTBZ binding relative to no compound (=1), replicate samples: Fig. 3b source data
Method: as §1

[10] = Fig. 2b/2c source data, compound 0.0152 μM
[11] = Fig. 2b/2c source data, compound 0.1372 μM
[12] = Fig. 2b/2c source data, compound 0.4115 μM
[13] = Fig. 2b/2c source data, compound 1.2346 μM
[14] = Fig. 2b/2c source data, compound 3.7037 μM
[15] = Fig. 2b/2c source data, compound 11.1111 μM
[16] = Fig. 2b/2c source data, compound 100.0000 μM
[17] = compound 100.0000 (μM per methods)

Chain of rat VMAT2 (Q01827 whole entry): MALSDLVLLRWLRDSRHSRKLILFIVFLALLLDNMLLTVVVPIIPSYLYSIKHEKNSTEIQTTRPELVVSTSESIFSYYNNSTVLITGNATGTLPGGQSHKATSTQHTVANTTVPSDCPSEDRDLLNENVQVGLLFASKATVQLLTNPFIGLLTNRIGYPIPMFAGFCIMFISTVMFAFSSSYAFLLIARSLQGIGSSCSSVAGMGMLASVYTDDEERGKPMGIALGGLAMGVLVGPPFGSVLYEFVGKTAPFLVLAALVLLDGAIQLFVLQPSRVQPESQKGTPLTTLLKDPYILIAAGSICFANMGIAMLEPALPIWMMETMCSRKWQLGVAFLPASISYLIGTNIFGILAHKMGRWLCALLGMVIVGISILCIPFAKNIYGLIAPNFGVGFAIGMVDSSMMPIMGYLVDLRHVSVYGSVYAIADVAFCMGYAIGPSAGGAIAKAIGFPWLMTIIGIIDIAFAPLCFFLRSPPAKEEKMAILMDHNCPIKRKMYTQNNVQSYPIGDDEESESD
T4 sequence (Q01827 whole entry): as above
T1 sequence (Q01827 whole entry): as above
Chain of rat VMAT2 P314A (Q01827 whole entry P314A): as the sequence (Q01827 whole entry) above, with P314A counted along it
Chain of rat VMAT2 Q143A (Q01827 whole entry Q143A): as the sequence (Q01827 whole entry) above, with Q143A counted along it
T2 sequence (Q05940 whole entry): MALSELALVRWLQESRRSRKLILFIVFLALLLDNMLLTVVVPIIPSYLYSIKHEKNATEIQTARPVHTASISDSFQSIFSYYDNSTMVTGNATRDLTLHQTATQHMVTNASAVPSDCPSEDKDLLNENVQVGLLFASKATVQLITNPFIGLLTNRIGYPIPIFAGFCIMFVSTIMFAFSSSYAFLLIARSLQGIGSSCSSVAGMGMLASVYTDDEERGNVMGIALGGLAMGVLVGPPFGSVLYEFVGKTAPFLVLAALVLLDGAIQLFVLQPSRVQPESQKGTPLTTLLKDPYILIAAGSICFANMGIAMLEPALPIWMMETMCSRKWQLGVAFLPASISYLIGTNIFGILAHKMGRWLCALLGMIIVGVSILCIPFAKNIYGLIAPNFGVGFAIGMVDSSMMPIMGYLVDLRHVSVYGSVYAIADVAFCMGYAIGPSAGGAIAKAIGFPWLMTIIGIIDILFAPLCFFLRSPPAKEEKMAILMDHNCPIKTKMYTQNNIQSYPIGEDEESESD
Chain of rat VMAT2 Y434A (Q01827 whole entry Y434A): as the sequence (Q01827 whole entry) above, with Y434A counted along it

| SMILES | ΔTm [1] | ΔTm at 12 µM [1] | ΔTm at 37 µM [1] | ΔTm at 10 µM [1] | ΔTm at 30 µM [1] | ΔTm at 90 µM [1] | ΔTm at 270 µM [1] | ΔTm at 11 µM [1] | ΔTm at 33 µM [1] | IC50 [2] | IC50 [3] | activity [4] | IC50 [5] | IC50 [6] | IC50 [8] | VMAT2-specific FFN206 uptake relative to DMSO (=1), replicate samples [8] | FFN206 uptake relative to no compound (=1), replicate samples [8, 10] | FFN206 uptake relative to no compound (=1), replicate samples [8, 11] | FFN206 uptake relative to no compound (=1), replicate samples [8, 12] | FFN206 uptake relative to no compound (=1), replicate samples [8, 13] | further results |
| --- | --- | --- | --- | --- | --- | --- | --- | --- | --- | --- | --- | --- | --- | --- | --- | --- | --- | --- | --- | --- | --- |
| OCc1cc(C(O)CNCCCCCCOCCCCc2ccccc2)ccc1O (stereo not shown) [Salmeterol] | 9.71 ± 0.22 oC | 5.78 °C | 6.25 °C | 7.48 °C | 7.9 °C | 8.7 °C | 10.5 °C | 6.55 °C | 7.04 °C | 35 ± 16 nM | 23 ± 2 nM | 0.37 ± 2.83% | 148 ± 33 nM | 234 ± 65 nM | 53 ± 28 nM | 0.01652 and -0.1153 and -0.05311 and -0.0161 | 0.8683 and 0.9316 and 0.8545 and 0.8755 and 0.7872 and 0.8834 and 0.9116 and 0.9363 | 0.4384 and 0.5181 and 0.4428 and 0.5409 and 0.2594 and 0.3377 and 0.3056 and 0.4141 | 0.2986 and 0.3445 and 0.2962 and 0.3132 and 0.1258 and 0.1847 and 0.149 and 0.1946 | 0.2192 and 0.2619 and 0.2463 and 0.2625 and -0.00094 and 0.06663 and 0.05805 and 0.07997 | IC50 [7]: 126 ± 87 nM; FFN206 uptake relative to no compound (=1), replicate samples [8, 14]: 0.2883 and 0.2538 and 0.257 and 0.1826 and 0.05594 and 0.1039 and 0.07279 and 0.105; FFN206 uptake relative to no compound (=1), replicate samples [8, 15]: 0.2315 and 0.2175 and 0.2018 and 0.1642 and 0.02429 and 0.09314 and 0.05353 and 0.1229; FFN206 uptake relative to no compound (=1), replicate samples [8, 16]: 0.2045 and 0.2463 and 0.2058 and 0.2286 and -0.0325 and 0.06428 and 0.00994 and 0.07; FFN206 uptake relative to no compound (=1), replicate samples ([8]; Fig. 2c source data, compound 0.0017 μM): 0.9528 and 0.9756 and 1.008 and 0.9844; effect on [3H]-DTBZ binding compared with DMSO control (one-way ANOVA, p < 0.001) [9]: statistically significantly effect; [3H]-DTBZ binding relative to no compound (=1), replicate samples ([9]; compound 0.0017): 0.6032 and 1.156 and 0.8878 and 0.838; [3H]-DTBZ binding relative to no compound (=1), replicate samples ([9]; compound 0.0051): 0.6168 and 0.8711 and 1.077 and 0.9012; [3H]-DTBZ binding relative to no compound (=1), replicate samples ([9]; compound 0.0152): 0.7563 and 1.108 and 1.007; [3H]-DTBZ binding relative to no compound (=1), replicate samples ([9]; compound 0.0457): 0.5988 and 0.6867 and 0.7774 and 0.6452; [3H]-DTBZ binding relative to no compound (=1), replicate samples ([9]; compound 0.1372): 0.4074 and 0.4854 and 0.3736 and 0.3232; [3H]-DTBZ binding relative to no compound (=1), replicate samples ([9]; compound 0.4115): 0.02476 and 0.03862 and 0.09845 and 0.04206; [3H]-DTBZ binding relative to no compound (=1), replicate samples ([9]; compound 1.2346): 0.01432 and 0.02317 and 0.00733 and 0.04172; [3H]-DTBZ binding relative to no compound (=1), replicate samples ([9]; compound 3.7037): 0.02156 and 0.02614 and 0.01787 and 0.1343; [3H]-DTBZ binding relative to no compound (=1), replicate samples ([9]; compound 11.1111): -0.04565 and 0.05011 and -0.00482 and -0.01021; [3H]-DTBZ binding relative to no compound (=1), replicate samples ([9]; compound 33.3333): -0.01836 and -0.0105 and -0.00518 and -0.00848; [3H]-DTBZ binding relative to no compound (=1), replicate samples [9, 17]: 0.02729 and -0.01624 and -0.00322 and -0.00727 |
| COc1cc2c(cc1OC)C1CC(=O)C(CC(C)C)CN1CC2 (stereo not shown) [Tetrabenazine] | 8.17 ± 0.14 oC | 4.89 °C | 5.05 °C | 6.86 °C | 4.27 °C | 4.64 °C | 5.17 °C | 5.52 °C | 5.92 °C | 18 nM | > 100000 nM |  |  |  |  |  |  |  |  |  |  |
| O=C1Cc2cc(CCN3CCN(c4nsc5ccccc45)CC3)c(Cl)cc2N1 [Ziprasidone, Ziprasidone Hydrochloride] | 2.69 ± 0.12 oC | 0.41 °C | 0.68 °C | 0.6 °C | 0.71 °C | 1.13 °C | 1.82 °C | 0.69 °C | 0.58 °C | 23 nM | 35 nM | 36.5 ± 7.71% | 354 ± 83 nM | 132 ± 8 nM | 39 ± 17 nM | -0.0048 and -0.08665 and -0.06177 and 0.05752 | 0.7804 and 0.7848 and 0.755 and 0.7991 | 0.4886 and 0.4837 and 0.4034 and 0.5734 | 0.4342 and 0.3743 and 0.3683 and 0.4657 | 0.3953 and 0.3737 and 0.3153 and 0.4191 | fold increased IC50 vs wild-type ([5]; Q143A): ~10 fold; fold increased IC50 vs wild-type ([6]; P314A): approx. 3 fold; FFN206 uptake relative to no compound (=1), replicate samples [8, 14]: 0.3802 and 0.3604 and 0.2907 and 0.3691; FFN206 uptake relative to no compound (=1), replicate samples [8, 15]: 0.4118 and 0.377 and 0.294 and 0.3618; FFN206 uptake relative to no compound (=1), replicate samples [8, 16]: 0.3782 and 0.3789 and 0.3057 and 0.3727; effect on [3H]-DTBZ binding compared with DMSO control (one-way ANOVA, p < 0.001) [9]: statistically significantly effect; [3H]-DTBZ binding relative to no compound (=1), replicate samples ([9]; compound 0.0017): 0.8751 and 1.064 and 1.013 and 0.8455; [3H]-DTBZ binding relative to no compound (=1), replicate samples ([9]; compound 0.0051): 0.8936 and 1.069 and 1.018 and 0.8322; [3H]-DTBZ binding relative to no compound (=1), replicate samples ([9]; compound 0.0152): 0.7303 and 1.42 and 1.076 and 0.8096; [3H]-DTBZ binding relative to no compound (=1), replicate samples ([9]; compound 0.0457): 0.8393 and 0.4876 and 0.8108 and 0.8579; [3H]-DTBZ binding relative to no compound (=1), replicate samples ([9]; compound 0.1372): 1.015 and 0.924 and 0.9381 and 0.7974; [3H]-DTBZ binding relative to no compound (=1), replicate samples ([9]; compound 0.4115): 0.6748 and 0.8924 and 0.7988 and 0.4363; [3H]-DTBZ binding relative to no compound (=1), replicate samples ([9]; compound 1.2346): 0.4427 and 0.7246 and 0.4654 and 0.6729; [3H]-DTBZ binding relative to no compound (=1), replicate samples ([9]; compound 3.7037): 0.6274 and 0.382 and 0.3472 and 0.5985; [3H]-DTBZ binding relative to no compound (=1), replicate samples ([9]; compound 11.1111): 0.6424 and 0.4197 and 0.5023 and 0.5651; [3H]-DTBZ binding relative to no compound (=1), replicate samples ([9]; compound 33.3333): 0.4189 and 0.1764 and 0.1269 and 0.541; [3H]-DTBZ binding relative to no compound (=1), replicate samples [9, 17]: 0.3228 and 0.1927 and 0.2304 and 0.2985 |
